From patent publication US20150018376A1, “PYRIMIDIN-4-YL)OXY)-1H-INDOLE-1-CARBOXAMIDE DERIVATIVES AND USE THEREOF” (NOVARTIS AG, priority 2013, published 2015)

Legend:
KDR (GST-KDR(807-1356)) = target: T1, KDR (GST-KDR(807-1356)) (Homo sapiens, UniProt P35968); test: KDR protein kinase activity, LanthaScreen TR-FRET; type: biochemical; conditions: 2 μM ATP, 1 hour incubation
T1 construct: GST-KDR(807-1356), internally produced recombinant protein; GST (N); made in house
Protocol: A generic assay set-up has been run at room temperature on a liquid handling robot. To the assay plates containing 50 nL compound or control solutions, 4.5 μL of ATP mix (20 mM Tris-HCl pH7.4, 1 mM DTT, 0.025% Tween20, 0.01 mM Na3VO4, 10 mM MgCl2, 1 mM MnCl2, and 4 μM ATP) were added per well. Subsequently, 4.5 μL of enzyme-substrate mix (20 mM Tris-HCl pH7.4, 1 mM DTT, 0.025% Tween20, 0.01 mM Na3VO4, 10 mM MgCl2, 1 mM MnCl2, 0.5% BSA, 100 nM fluorescein labeled poly(EAY), and 0.76 nM KDR (GST-KDR(807-1356), internally produced recombinant protein) were added.
The final reaction volume is 9.05 μL with final reagent concentrations of 20 mM Tris-HCl pH7.4, 1 mM DTT, 0.025% Tween20, 0.01 mM Na3VO4, 10 mM MgCl2, 1 mM MnCl2, including a generic concentration of 2 μM ATP, 50 nM of substrate fluorescein labeled poly(EAY), and 0.38 nM enzyme.
After 1 hour of incubation the kinase reactions have been stopped by the addition of 4.5 μL of stop solution (20 mM Tris-HCl pH7.4, 1 mM DTT, 0.025% Tween20, 0.01 mM Na3VO4, 50 mM EDTA) immediately followed by 4.5 μL of antibody solution (20 mM Tris-HCl pH7.4, 1 mM DTT, 0.025% Tween20, 0.01 mM Na3VO4, 1.72 μg/ml Tb-PY20).
After an incubation time of 45 min in the dark, the plates were transferred into a fluorescence reader and counted in time resolved fluorescence mode (settings according to the reagent supplier's recommendation). The effect of compound on the enzymatic activity was obtained from end point measurement.

[1] = Stability of crystalline form; type: physicochemical; conditions: HCl salt
From the text: Crystalline form B of the HCl salt of N-(1-methyl-5-(trifluoromethyl)-1H-pyrazol-3-yl)-5-((6-((methylamino)methyl)pyrimidin-4-yl)oxy)-1H-indole-1-carboxamide was obtained using the same procedure as in Example 5 above.

human hepatocytes = test: Hepatocyte viability during incubation (ViaCount assay); type: cell-based; conditions: 10 μmol/L, percent viable cells relative to total cells
Protocol: (§1) After thawing the cryopreserved hepatocytes, the viable cells were enriched by centrifugation in HepatoZYME cell culture medium (Gibco Invitrogen). For this purpose, the cells were added to 45 mL of a 37° C. warm HepatoZYME, and centrifuged at room temperature, at 50 g for 5 min. The supernatant containing dead cells was discarded and the cells in the pellet were re-suspended in HepatoZYME.
(§2) The viability of the re-suspended hepatocytes was determined by a Guava EasyCyte™ Mini system using the ViaCount® assay as described by the supplier (Guava Technologies, Hayward, Calif., USA). After cell counting, the cell concentration was adjusted to approx. 1·10^6 viable cells/mL by adding HepatoZYME. Subsequently, the incubations were started by adding [^14C] N-(1-methyl-5-(trifluoromethyl)-1H-pyrazol-3-yl)-5-(6-((methylamino)methyl)pyrimidin-4-yloxy)-1H-indole-1-carboxamide and non-labeled N-(1-methyl-5-(trifluoromethyl)-1H-pyrazol-3-yl)-5-(6-((methylamino)methyl)pyrimidin-4-yloxy)-1H-indole-1-carboxamide as a solution in DMSO. The final concentration of DMSO in the incubations was 0.1% (v/v).
(§3) To check the chemical stability of [^14C] N-(1-methyl-5-(trifluoromethyl)-1H-pyrazol-3-yl)-5-(6-((methylamino)methyl)pyrimidin-4-yloxy)-1H-indole-1-carboxamide under the incubation conditions, the compound was incubated at a concentration of 10 μmol/L in HepatoZYME without hepatocytes. A second series of control incubations was performed with hepatocytes of all species in the absence of the test compound to investigate the effect of the latter on the viability. These experiments were performed in a 12×6 mL MultiWell™ plate (Art. 393503, Beckton Dickinson).
(§4) The incubations were performed at 37° C. under a humidified atmosphere of 95% relative humidity and 5% CO2 in a Heraeus incubator/cytoperm (Kendro Laboratory Products AG, Zürich, Switzerland). During the incubations, the plates and flasks were shaken at 300 strokes per minute. The viability of the hepatocytes was determined after 6 h (end of incubation).

monkey hepatocytes = test: as above; type: cell-based; conditions: 10 μmol/L, percent viable cells relative to total cells
Protocol: as §1, §2, §3, §4

rabbit hepatocytes = test: as above; type: cell-based; conditions: 10 μmol/L, percent viable cells relative to total cells
Protocol: as §1, §2, §3, §4

rat hepatocytes = test: as above; type: cell-based; conditions: 10 μmol/L, percent viable cells relative to total cells
Protocol: as §1, §2, §3, §4

[2] = system: hepatocytes from rat, rabbit, monkey, and human; test: Hepatocyte viability during incubation, all species summarised; type: cell-based; conditions: 10 μmol/L, range over four species; initially 70-93%; controls without compound 4-21%
Protocol: as §1
as §2, with “(v/v). […]” for “(v/v).”
The incubations were performed at 37° C. under a humidified atmosphere of 95% relative humidity and 5% CO2 in a Heraeus incubator/cytoperm (Kendro Laboratory Products AG, Zürich, Switzerland). […] The viability of the hepatocytes was determined after 6 h (end of incubation).

[3] = Control incubations in the absence of hepatocytes or liver microsomes (chemical stability); type: in vitro ADME; conditions: 10 μmol/L in HepatoZYME without hepatocytes (6 h) or buffer without microsomes (60 min), 37° C.
Protocol: as §3
Microsomal incubations for metabolite profiles were performed at 10 μmol/L of [^14C] N-(1-methyl-5-(trifluoromethyl)-1H-pyrazol-3-yl)-5-(6-((methylamino)methyl)pyrimidin-4-yloxy)-1H-indole-1-carboxamide (approx. 50% radiolabeled) with one time point investigated (60 min). Incubations were performed at 37° C. in 0.1 mol/L sodium phosphate buffer pH 7.4. The final concentrations in the incubation cocktail were: 4 mmol/L UDPGA (Sigma-Aldrich), 1 mmol/L β-NADPH (Sigma-Aldrich), 5 mmol/L MgCl2, and 60 μg alamethicin (Sigma-Aldrich) per mg microsomal protein. The system was left to incubate for 10 min before adding the test compound to allow the pore formation with the alamethicin. The metabolic reaction was started by the addition of [^14C] […]

T1 sequence (P35968 807-1356): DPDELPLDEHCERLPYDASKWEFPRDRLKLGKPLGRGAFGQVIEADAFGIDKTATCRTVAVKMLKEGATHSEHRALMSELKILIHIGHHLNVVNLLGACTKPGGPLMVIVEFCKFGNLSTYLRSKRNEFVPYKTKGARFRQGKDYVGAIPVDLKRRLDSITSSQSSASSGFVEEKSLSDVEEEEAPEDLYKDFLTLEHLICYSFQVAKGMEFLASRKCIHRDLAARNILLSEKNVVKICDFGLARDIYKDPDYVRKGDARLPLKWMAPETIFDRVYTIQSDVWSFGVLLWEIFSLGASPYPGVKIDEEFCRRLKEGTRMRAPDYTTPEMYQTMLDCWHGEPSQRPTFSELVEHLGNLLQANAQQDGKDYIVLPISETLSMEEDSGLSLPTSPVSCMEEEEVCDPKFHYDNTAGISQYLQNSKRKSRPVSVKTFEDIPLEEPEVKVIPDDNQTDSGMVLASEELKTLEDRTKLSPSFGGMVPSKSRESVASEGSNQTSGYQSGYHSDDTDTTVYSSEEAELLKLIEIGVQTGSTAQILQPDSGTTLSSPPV

`Cn1nc(NC(=O)n2ccc3cc(Oc4cc(/C=[N+](/C)[O-])ncn4)ccc32)cc1C(F)(F)F` [Example 1, (Z)-N-((6-((1-((1-methyl-5-(trifluoromethyl)-1H-pyrazol-3-yl)carbamoyl)-1H-indol-5-yl)oxy)pyrimidin-4-yl)methylene)methanamine oxide] gave an IC50 (KDR (GST-KDR(807-1356))) of less than 0.001 µM.

In the case of `Cn1nc(NC(=O)n2ccc3cc(Oc4cc(C(N)=O)ncn4)ccc32)cc1C(F)(F)F` [Example 2, 5-((6-Carbamoylpyrimidin-4-yl)oxy)-N-(1-methyl-5-(trifluoromethyl)-1H-pyrazol-3-yl)-1H-indole-1-carboxamide], the IC50 (KDR (GST-KDR(807-1356))) is reported as 0.02 µM.

`Cn1nc(NC(=O)n2ccc3cc(Oc4cc(CN)ncn4)ccc32)cc1C(F)(F)F` [Example 3, 5-(6-(aminomethyl)pyrimidin-4-yloxy)-N-(1-methyl-5-(trifluoromethyl)-1H-pyrazol-3-yl)-1H-indole-1-carboxamide] gave an IC50 (KDR (GST-KDR(807-1356))) of less than 0.001 µM.

For `CNCc1cc(Oc2ccc3c(ccn3C(=O)Nc3cc(C(F)(F)F)n(C)n3)c2)ncn1` [Form B, N-(1-methyl-5-(trifluoromethyl)-1H-pyrazol-3-yl)-5-((6-((methylamino)methyl)pyrimidin-4-yl)oxy)-1H-indole-1-carboxamide], the “stability of the crystalline form” value [1] was “transient form that converts back to Form A”.

With `CNCc1cc(Oc2ccc3c(ccn3C(=O)Nc3cc(C(F)(F)F)n(C)n3)c2)ncn1` [[^14C] N-(1-methyl-5-(trifluoromethyl)-1H-pyrazol-3-yl)-5-(6-((methylamino)methyl)pyrimidin-4-yloxy)-1H-indole-1-carboxamide] the “Viability at 6 h” value (human hepatocytes) was 25%, the “Viability at 6 h” value (monkey hepatocytes) was 42% and the “Viability at 6 h” value (rabbit hepatocytes) was 8%. For the same compound, the “Viability at 6 h” value (rat hepatocytes) was 22%, the “viability of the hepatocytes after 6 hours” value [2] was 8-42% and the “chemical stability in the incubation media” value [3] was “confirmed the stability of the compound”.
